Patent US20060165656A1, “Medicinal preparation having chemotherapeutic encapsulated therein” (priority 2002, published 2006)
Like-named read-outs stand apart in the source and are kept apart here.

What was measured:
[1] = system: Mouse colon cancer-derived CT-26 cells transplanted in BALB/cAnNCrj male mice; assay: In vivo experiment (2): tumor volume and weight, HVJ-E/BLM into the tumor with or without intraperitoneal CDDP; details: Day 21, physiological saline into the tumor
[2] = system: mouse colon carcinoma cell CT26; details: 30 minutes at 37° C., counted two days later, HCl
Description: A microtube containing the sample was centrifuged at 15,000 rpm for 15 minutes at 4° C. to give the HVJ-E vector as a precipitate, and the supernatant was removed. […] Further, 2 μl of 3% Triton-X100 was added thereto to prepare a sample containing Triton-X100 at a final concentration of 0.1%, which was then left on ice for 15 minutes. Thereafter, 500 μl PBS solution was added thereto. The microtube was centrifuged at 15,000 rpm for 15 minutes at 4° C., and the supernatant was removed without removing the precipitate, and 500 μl PBS solution was added again to the precipitate. The microtube was centrifuged again at 15,000 rpm for 15 minutes at 4° C., and the supernatant was removed without removing the precipitate.
The resulting precipitate was suspended in 180 μl PBS, and the resulting sample solution was pipetted in a volume of 30 μl/microtube into 6 microtubes. Five microlitters of protamine sulfate solution prepared at 5 mg/ml and 500 μl DMEM solution (Dulbecco's modified Eagle medium) were added to each tube.
The above sample solution was added to mouse colon carcinoma cell CT26 prepared on a 6-well plate. The plate was kept for 30 minutes in an incubator at 37° C., and then the medium was exchanged with 500 μl medium (DMEM containing 10% FCS). The cells were incubated for 2 days in a CO2 incubator at 37° C. Two days later, the number of viable cells was counted to evaluate the anticancer effect.

| Compound | tumor weight ([1]; CDDP 0.2 mg/body i.p.) [mg] | average tumor volume ([1]; CDDP 0.2 mg/body once intraperitoneally, 10 mice) [mm^3] | tumor weight ([1]; CDDP 0.4 mg/body i.p.) [mg] | average tumor volume ([1]; CDDP 0.4 mg/body once intraperitoneally, 3 mice) [mm^3] | number of viable cells (Mean) ([2]; 1/50 bleomycin group: bleomycin 50 μg/DMEM 500 μl/well) | number of viable cells (Mean) ([2]; 1/500 bleomycin group: bleomycin 5 μg/DMEM 500 μl/well) | number of viable cells (Mean) ([2]; 1/500 bleomycin group: bleomycin 5 μg/DMEM 500 μl/well, listed as Bleomycin) | number of viable cells (Mean) ([2]; 1/5,000 bleomycin group: bleomycin 500 ng/DMEM 500 μl/well) | number of viable cells (Mean) ([2]; 1/5,000 bleomycin group: bleomycin 500 ng/DMEM 500 μl/well, listed as Bleomycin) |
| --- | --- | --- | --- | --- | --- | --- | --- | --- | --- |
| [NH2][Pt]([NH2])([Cl])[Cl] [CDDP, cisplatin] | 1619.79 | 1720.14 | 1164.13 | 1367.62 |  |  |  |  |  |
| bleomycin HCl |  |  |  |  | 81800 | 164,600 | 164600 | 196,800 | 196800 |
